From PMC5737456 (Pain, 2017)

What was measured:
Type in all cases: cell-based
human TRESK (hTRESK) [1] = biological target: T1, human TRESK (hTRESK) (Homo sapiens, UniProt Q7Z418); experiment: whole-cell patch clamp in transfected HEK293 cells, single concentration […]; details: HEK293, read-out: % inhibition at 20 μM
T1 sequence (Q7Z418 1-384): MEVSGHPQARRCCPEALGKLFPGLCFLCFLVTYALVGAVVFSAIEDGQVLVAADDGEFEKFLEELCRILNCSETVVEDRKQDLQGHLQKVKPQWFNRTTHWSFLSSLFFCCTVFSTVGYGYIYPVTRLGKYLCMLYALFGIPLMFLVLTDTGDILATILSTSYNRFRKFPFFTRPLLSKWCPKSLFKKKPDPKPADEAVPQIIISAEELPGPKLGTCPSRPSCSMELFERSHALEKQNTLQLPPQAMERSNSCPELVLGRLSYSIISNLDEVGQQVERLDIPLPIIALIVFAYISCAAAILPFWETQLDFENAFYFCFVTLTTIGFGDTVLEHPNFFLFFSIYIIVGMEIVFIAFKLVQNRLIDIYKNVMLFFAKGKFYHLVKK

human TRESK (hTRESK) [2] = biological target: T1, human TRESK (hTRESK); experiment: whole-cell patch clamp in transfected HEK293 cells, dose-response
mouse TRESK (mTRESK) = biological target: T2, mouse TRESK (mTRESK) (Mus musculus, UniProt Q6VV64); experiment: whole-cell patch clamp dose-response
T2 sequence (Q6VV64 1-394): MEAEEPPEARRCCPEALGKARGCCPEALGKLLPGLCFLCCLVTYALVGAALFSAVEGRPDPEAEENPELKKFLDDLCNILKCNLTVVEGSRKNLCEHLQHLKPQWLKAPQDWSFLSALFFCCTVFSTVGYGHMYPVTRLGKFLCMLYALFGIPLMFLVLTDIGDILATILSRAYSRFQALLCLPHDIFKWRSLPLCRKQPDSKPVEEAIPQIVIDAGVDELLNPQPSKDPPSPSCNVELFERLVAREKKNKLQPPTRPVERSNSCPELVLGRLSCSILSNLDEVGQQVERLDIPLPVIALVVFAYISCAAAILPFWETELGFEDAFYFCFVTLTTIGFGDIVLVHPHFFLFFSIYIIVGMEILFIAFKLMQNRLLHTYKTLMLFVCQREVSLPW

mouse TRAAK (mTRAAK) = biological target: T3, mouse TRAAK (mTRAAK) (Mus musculus, UniProt O88454); experiment: whole-cell patch clamp in transfected HEK293 cells, dose-response
T3 sequence (O88454 1-398): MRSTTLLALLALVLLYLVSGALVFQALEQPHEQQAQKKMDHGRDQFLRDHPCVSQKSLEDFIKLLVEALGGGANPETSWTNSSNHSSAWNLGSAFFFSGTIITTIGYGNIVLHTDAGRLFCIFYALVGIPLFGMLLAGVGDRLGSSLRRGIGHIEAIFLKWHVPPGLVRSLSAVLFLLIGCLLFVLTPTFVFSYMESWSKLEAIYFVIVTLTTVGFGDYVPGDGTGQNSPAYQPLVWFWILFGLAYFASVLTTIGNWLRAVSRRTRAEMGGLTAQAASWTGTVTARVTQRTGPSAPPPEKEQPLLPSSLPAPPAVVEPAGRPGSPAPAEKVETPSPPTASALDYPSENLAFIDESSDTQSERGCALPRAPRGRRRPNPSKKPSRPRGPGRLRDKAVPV

human TREK-2 (hTREK-2) = biological target: T4, human TREK-2 (hTREK-2) (Homo sapiens, UniProt P57789); experiment: as above
T4 sequence (P57789 1-538): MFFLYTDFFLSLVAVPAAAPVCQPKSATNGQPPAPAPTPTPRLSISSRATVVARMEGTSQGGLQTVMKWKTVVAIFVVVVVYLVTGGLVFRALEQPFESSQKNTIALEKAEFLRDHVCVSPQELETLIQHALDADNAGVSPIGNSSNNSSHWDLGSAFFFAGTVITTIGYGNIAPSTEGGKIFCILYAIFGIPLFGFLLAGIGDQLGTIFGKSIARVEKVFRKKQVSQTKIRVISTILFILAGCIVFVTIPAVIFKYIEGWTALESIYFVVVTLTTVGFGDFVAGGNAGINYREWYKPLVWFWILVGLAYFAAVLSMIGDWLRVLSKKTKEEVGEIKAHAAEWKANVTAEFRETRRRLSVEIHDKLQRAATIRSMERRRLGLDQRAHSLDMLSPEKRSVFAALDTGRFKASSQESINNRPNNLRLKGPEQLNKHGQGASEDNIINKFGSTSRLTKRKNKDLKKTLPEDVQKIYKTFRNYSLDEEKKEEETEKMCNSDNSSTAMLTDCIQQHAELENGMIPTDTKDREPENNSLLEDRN

rat TRESK = biological target: T5, rat TRESK (Rattus norvegicus, UniProt Q6Q1P3); experiment: whole-cell patch clamp in transfected HEK293 cells, […]
T5 sequence (Q6Q1P3 1-405): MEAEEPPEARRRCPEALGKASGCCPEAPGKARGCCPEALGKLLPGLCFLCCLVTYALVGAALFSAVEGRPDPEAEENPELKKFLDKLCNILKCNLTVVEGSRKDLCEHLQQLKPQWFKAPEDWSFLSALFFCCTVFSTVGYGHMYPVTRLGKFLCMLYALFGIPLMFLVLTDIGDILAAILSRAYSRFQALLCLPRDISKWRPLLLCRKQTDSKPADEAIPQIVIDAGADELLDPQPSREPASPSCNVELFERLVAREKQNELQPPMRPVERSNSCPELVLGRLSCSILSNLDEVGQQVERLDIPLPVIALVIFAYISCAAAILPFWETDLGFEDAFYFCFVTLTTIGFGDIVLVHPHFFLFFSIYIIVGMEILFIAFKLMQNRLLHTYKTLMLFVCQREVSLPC

With `CC1(C)[C@H](C(=O)O[C@H](C#N)c2cccc(Oc3ccccc3)c2)[C@@H]1C=C(Br)Br` [DM, deltamethrin] the inhibition at 20 µM (human TRESK (hTRESK) [1]) was 30%.

For `CC1(C)C(C=C(Cl)Cl)C1C(=O)OCc1cccc(Oc2ccccc2)c1` (stereo not shown) [PM, permethrin], the inhibition at 20 µM (human TRESK (hTRESK) [1]) was 27%.

`CC(C)=CC1C(C(=O)OCN2C(=O)C3=C(CCCC3)C2=O)C1(C)C` (stereo not shown) [TM, Tetramethrin] was tested, and the IC50 (human TRESK (hTRESK) [2]) was 10.7 µM, the IC50 (mouse TRESK (mTRESK)) was 34.9 µM and the IC50 (mouse TRAAK (mTRAAK)) was 12.6 µM. The IC50 (human TREK-2 (hTREK-2)) was 75.6 µM and the “whole-cell patch clamp in transfected HEK293 cells, 20 μM” value (rat TRESK) was “TM was also tested on rat and mouse TRESK orthologs, with similar inhibitory effects”.
